In US10555919B2, “Melatonin in autoimmune disease” (The Brigham and Women's Hopsital, Inc., priority 2014, dated 2020):

Key:
Tr1 cells = test: In vitro mouse Tr1 cell differentiation; format: cell-based; settings: agomelatine 20 ng/ml, CGP 52608 20 ng/ml
Description: (§1) Naive CD4+ T cells (CD4+CD44loCD62LhiCD25−) were from the spleen and lymph node of C57BL/6 wild-type, MTNR1A−, NFIL3−, REV-ERBα, C/EBPα-deficient or RORα-deficient mice using magnetic beads (CD4+ T cell isolation kit, Miltenyi Biotec). All experiments were started between 7 and 9 am. Cells were activated with plate-bound anti-CD3 (2 μg/ml; 14-0031-86; eBioscience) and anti-CD28 (2 μg/ml; 16-0281-86; eBioscience). Mouse IL-27 (30 ng/ml; 34-8271; Biolegend) was added for the generation of Tr1 cells. IL-6 (30 ng/ml; 406-ML-025; R&D Systems), TGF-β1 (15 ng/ml; 130-095-067; Miltenyi Biotec), anti-IL-4 (2.5 μg/ml; C17.8; Biolegend) and anti-IFN-γ (5 μg/ml; XMG1.2; Biolegend) were added for the generation of Th17 cells. Recombinant mouse IL-23 (30 ng/ml; 1887-ML-010; R&D Systems) was added at day 2. For some experiments IL-6 and […] (10 ng/ml; 401-ML-025; R&D Systems) or TGF-β1 and IL-21 (100 ng/ml; 594-ML-010; R&D Systems) were used in instead for Th17 cell differentiation. IL-12 (30 ng/ml; 419-ML-010; R&D Systems) and anti-IL-4 (2.5 μg/ml; C17.8; Biolegend) were used for the generation of Th1 cells. IL-4 (30 ng/ml; 404-ML-010; R&D Systems) and anti-IFN-γ (5 μg/ml; XMG1.2; Biolegend) was added for the generation of Th2 cells. TGF-β1 (15 ng/ml; 130-095-067; Miltenyi Biotec) was used for the generation of Foxp3+ Tregs. Melatonin (Gador, Argentina), Agomelatin, and CGP-52608 (Sigma-Aldrich) were added at the start of the cultures and at day 2, at a final concentration of 2-20 ng/ml.

[1] = tested on: murine Th17 cell differentiation; test: In vitro mouse Th17 cell differentiation; format: cell-based; settings: for differentiation of Th17 cells (rorc, IL-17, IL-23 receptor): wild type, melatonin 2 ng/ml, agomelatine 20 ng/ml, ramelteon 10 ng/ml, CGP 52608 20 ng/ml
Description: For intracellular cytokine staining, cells were stimulated for 4 h at 37° C. with phorbol 12-myristate 13-acetate (50 ng/ml; Sigma), ionomycin (1 μg/ml; Sigma) and monensin (GolgiStop; 1 μg/ml; BD Biosciences). After being stained for surface markers, cells were fixed and made permeable according to the manufacturer's instructions (BD Biosciences). All antibodies against cytokines were from Biolegend. All experiments were started at the same time (8-9 am). Data were collected with a LSR II or FACSAria (BD Biosciences), then were analyzed with FlowJo software (Treestar).
as §1
(§2) Secreted cytokines were measured in tissue culture supernatants after 72-96 hs by enzyme-linked immunosorbent assay as previously described (Farez et al., 2009).

MT2 melatonin receptor = target: T1, MT2 melatonin receptor (Homo sapiens, UniProt P49286); settings: nonselective ligand; cited from earlier work
T1 sequence (P49286 1-362): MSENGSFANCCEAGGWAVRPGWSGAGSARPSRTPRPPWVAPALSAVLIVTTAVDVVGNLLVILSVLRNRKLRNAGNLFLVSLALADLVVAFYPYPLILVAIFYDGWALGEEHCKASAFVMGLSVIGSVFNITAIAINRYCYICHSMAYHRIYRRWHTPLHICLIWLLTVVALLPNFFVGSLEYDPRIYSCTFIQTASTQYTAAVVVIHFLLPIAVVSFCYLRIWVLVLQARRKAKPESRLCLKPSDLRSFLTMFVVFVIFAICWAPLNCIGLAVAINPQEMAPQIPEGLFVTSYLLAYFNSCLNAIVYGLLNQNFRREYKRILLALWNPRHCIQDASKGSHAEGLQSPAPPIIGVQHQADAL

[2] = tested on: human CD4+ T cells activated under Tr1 polarizing conditions; test: In vitro human Tr1 differentiation; format: cell-based; settings: 500 ng/ml
Source text: We then studied the effects of melatonin on human CD4^+ T cells. In addition, we also analyzed the effects of agomelatine, which activates melatonin-dependent signaling (Hickie and Rogers, 2011). Based on the effects of melatonin administration on T cells during EAE, we focused our studies on human Th17 and Tr1 cells. Melatonin and agomelatine reduced the production of IL-17, RORC and IL17A expression by human CD4^+ T cells activated under Th17 polarizing conditions (FIGS. 3a-c and FIG. 8), no effect was detected on the differentiation of human Th1 cells (FIGS. 3d-f). Concomitantly, melatonin and agomelatine increased IL10 expression.

human Th1 cells = test: In vitro human Th1 differentiation; format: cell-based; settings: 500 ng/ml; IL-12
Description: (§3) In vitro human T cell differentiation. For Th17 differentiation, naive CD45RA+ CD4+ T cells were isolated from PBMCs with magnetic beads (Naive Human CD4+ T Cell Isolation Kit II, Miltenyi Biotec) and seeded at a density of 5×10^5 cells/ml in 24-well plates coated with anti-CD3 and (2 μg/ml) and soluble anti-CD28 and cultured in the presence of the following cytokines IL-1β (25 ng/ml), IL-6 (50 ng/ml), and TGF-β1 (2 ng/ml) and neutralizing antibodies to IFN-g ([…]) and IL-4 (10 microgram/ml). Alternatively, Th17 cells were differentiated by using IL-1β (25 ng/ml), IL-6 (50 ng/ml), and IL-23 (50 ng/ml) and neutralizing antibodies to IFN-g ([…]) and IL-4 (10 microgram/ml). For Th1 differentiation naïve CD4+T cells are cultured in the presence of IL-12 (20 ng/ml) and anti-IL-4 (10 μg/ml).

[3] = tested on: human CD4+ T cells activated under Th17 polarizing conditions; test: In vitro human Th17 differentiation; format: cell-based; settings: 500 ng/ml
Description: as §3, §2

[4] = tested on: nr1d1 reporter-transfected HEK293 cells; test: nr1d1 promoter luciferase reporter assay; format: cell-based; settings: nr1d1 promoter controls luciferase expression
Source text: The IL-10 promoter reporter and C-Maf and AhR vectors were previously described (Apetoh et al., 2010), vector expressing ROR-α were purchased from PlasmID at Harvard Medical School. Vectors coding for C/EBPα (44627) and Bmal reporter (46824) were purchased from Addgene. The retrovirus used for nfil3 overexpression in T cells was graciously provided by Laura Hooper (UT Southwestern, TX, USA). The retrovirus used for nr1d1 overexpression in T cells was graciously provided by Bart Staels (Institut Pasteur, Lille, France, […]). The nr1d1 promoter reporter was graciously provide by Vincent Laudent (Ecole Normale Supérieure, Lyon, France).
HEK293 cells were grown in DMEM supplemented with 10% FBS and were transfected with FuGENE HD transfection reagent and 2 μg of each plasmids according the manufacturer's instructions (Roche). Firefly and renilla luciferase activity was analyzed 48 h after transfection and 24 h after treatment with a Dual Luciferase Assay kit (Promega).

SMILES: C=CCN1C(=O)CS/C1=N/NC(=S)NC [CGP 52608]
- Tr1 cell differentiation (Tr1 cells): boosted
- differentiation of Th17 cells (rorc, IL-17, IL-23 receptor) [1]: boosted

SMILES: CC(=O)NCCc1c(Cc2ccccc2)[nH]c2ccccc12 [Luzindole, N-[2-(2-benzyl-1H-indol-3-yl)ethyl]acetamide]
- higher affinity for the MT2 melatonin receptor (MT2 melatonin receptor): 15- to 25 fold

SMILES: CCOC(=O)N1CCC(CN(Cc2ccc(Cl)cc2)Cc2ccc([N+](=O)[O-])s2)C1 (stereo not drawn) [SR9009]
- differentiation into Th17 cells (RT-PCR) ([1]; SR9009 5 micromolar, 72 hr): suppresses

SMILES: COc1ccc2cccc(CCNC(C)=O)c2c1 [agomelatine, N-[2-(7-methoxynaphthalen-1-yl)ethyl]acetamide]
- IL-10 production [2]: increased
- Tr1 cell differentiation (Tr1 cells): boosted
- differentiation of human Th1 cells (human Th1 cells): no effect
- differentiation of Th17 cells (rorc, IL-17, IL-23 receptor) [1]: suppressed
- production of IL-17, RORC and IL17A expression [3]: reduced
- IL10 expression ([3]; Th17 polarizing conditions): increased
- luciferase activity [4]: decreased

SMILES: CCC(=O)NCC[C@@H]1CCc2ccc3c(c21)CCO3 [ramelteon, (S)—N-[2-(1,6,7,8-tetrahydro-2H-indeno[5,4-b]furan-8-yl)ethyl]propionamide]
- differentiation of Th17 cells (rorc, IL-17, IL-23 receptor) [1]: suppressed
